Laboratory results taken from ChEMBL document CHEMBL1201862, “PubChem BioAssay data set” (2004).
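Briefly, cells in 96-well plates were exposed to five compound concentrations for 48 h, and endpoints were estimated by linear interpolation. GI50 marks 50% less growth.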 Calls of active or inactive are those of the source. No stated cut-off is given here; in the data, active = GI50 up to about 1.1 µM and inactive = higher. Positions of bridges follow the written chain, without caps; N, C: chain ends. Where a SMILES comes first, the peptide text is derived from it. Non-standard residues stand in square brackets, D forms with d. Residues, ends and D or L forms follow the SMILES beside them. [ ]: non-standard residue; d: D form. ξ: configuration not given here. *: point of attachment. ξThz(5,5-Me2) = CC1(C)SCNC1C(=O)O; Cbz = O=C(OCc1ccccc1)*; Aib = CC(C)(N)C(=O)O; OBn = c1ccc(CO*)cc1; βAla = NCCC(=O)O

Assays:
Test in all cases: NCI-60 cell line screen, 48 h
HL-60 = tested on: HL-60
OVCAR-8 = tested on: OVCAR-8
SN12C = tested on: SN12C
A498 = tested on: A498
U-251 = tested on: U-251
MDA-N = tested on: MDA-N
RPMI-8226 = tested on: RPMI-8226
RXF 393 = tested on: RXF 393
SK-OV-3 = tested on: SK-OV-3
SF-295 = tested on: SF-295
M14 = tested on: M14
SF-539 = tested on: SF-539
LOX IMVI = tested on: LOX IMVI
UO-31 = tested on: UO-31
KM12 = tested on: KM12
A549 = tested on: A549
Hs-578T = tested on: Hs-578T
NCI-H460 = tested on: NCI-H460
MOLT-4 = tested on: MOLT-4
CCRF-CEM = tested on: CCRF-CEM

## C1CCNCC1.S=C(S)N1CCCCC1
HL-60
  GI50: 0.307 µM (active)
OVCAR-8
  GI50: 61.1 µM (inactive)
SN12C
  GI50: 64.6 µM (inactive)
A498
  GI50: 36.7 µM (inactive)
U-251
  GI50: 1.46 µM (inactive)
MDA-N
  GI50: 13.1 µM (inactive)
RPMI-8226
  GI50: 3.75 µM (inactive)
RXF 393
  GI50: 190 µM (inactive)
SK-OV-3
  GI50: 92.5 µM (inactive)
SF-295
  GI50: 99.8 µM (inactive)
M14
  GI50: 25.4 µM (inactive)
SF-539
  GI50: 80.7 µM (inactive)
LOX IMVI
  GI50: 60.5 µM (inactive)
UO-31
  GI50: 58.7 µM (inactive)
KM12
  GI50: 2.26 µM (inactive)
A549
  GI50: 0.632 µM (active)
Hs-578T
  GI50: 163 µM (inactive)

## Cn1c(=O)c2sc3c4sc5c(=O)n(C)c6ccccc6c5c4sc3c2c2ccccc21
HL-60
  GI50: > 100 µM (inactive)
OVCAR-8
  GI50: > 100 µM (inactive)
SN12C
  GI50: > 100 µM (inactive)
A498
  GI50: > 100 µM (inactive)
U-251
  GI50: 47.5 µM (inactive)
MDA-N
  GI50: > 100 µM (inactive)
RPMI-8226
  GI50: > 100 µM (inactive)
RXF 393
  GI50: 12.6 µM (inactive)
SK-OV-3
  GI50: > 100 µM (inactive)
M14
  GI50: > 100 µM (inactive)
NCI-H460
  GI50: > 100 µM (inactive)
MOLT-4
  GI50: > 100 µM (inactive)
SF-539
  GI50: > 100 µM (inactive)
UO-31
  GI50: > 100 µM (inactive)
KM12
  GI50: > 100 µM (inactive)
CCRF-CEM
  GI50: > 100 µM (inactive)
A549
  GI50: > 100 µM (inactive)
Hs-578T
  GI50: 56.5 µM (inactive)

## N#Cc1c(-c2ccc(Cl)cc2)c2c(n(C3OC(CO)C(O)C(O)C3O)c1=S)CCCC2 (stereo not given)
HL-60
  GI50: 24.7 µM (inactive)
OVCAR-8
  GI50: 80.4 µM (inactive)
SN12C
  GI50: 68.5 µM (inactive)
A498
  GI50: 49.3 µM (inactive)
U-251
  GI50: 64.9 µM (inactive)
MDA-N
  GI50: 44.2 µM (inactive)
RPMI-8226
  GI50: 44.3 µM (inactive)
RXF 393
  GI50: > 10 µM (inactive)
SF-295
  GI50: > 100 µM (inactive)
M14
  GI50: > 100 µM (inactive)
NCI-H460
  GI50: 54.2 µM (inactive)
MOLT-4
  GI50: 26.1 µM (inactive)
SF-539
  GI50: > 100 µM (inactive)
LOX IMVI
  GI50: 47.2 µM (inactive)
UO-31
  GI50: 74.5 µM (inactive)
KM12
  GI50: 50 µM (inactive)
CCRF-CEM
  GI50: 49.3 µM (inactive)
A549
  GI50: > 100 µM (inactive)
Hs-578T
  GI50: > 100 µM (inactive)

## CCOC(=O)/C(C(=S)NCc1ccccc1)=C(/N)N1CCCC1
HL-60
  GI50: > 100 µM (inactive)
OVCAR-8
  GI50: > 100 µM (inactive)
SN12C
  GI50: > 100 µM (inactive)
A498
  GI50: > 100 µM (inactive)
U-251
  GI50: > 100 µM (inactive)
MDA-N
  GI50: > 100 µM (inactive)
RPMI-8226
  GI50: > 100 µM (inactive)
RXF 393
  GI50: > 100 µM (inactive)
SF-295
  GI50: > 100 µM (inactive)
M14
  GI50: > 100 µM (inactive)
NCI-H460
  GI50: > 100 µM (inactive)
MOLT-4
  GI50: > 100 µM (inactive)
SF-539
  GI50: > 100 µM (inactive)
LOX IMVI
  GI50: > 100 µM (inactive)
UO-31
  GI50: 56.9 µM (inactive)
KM12
  GI50: > 100 µM (inactive)
CCRF-CEM
  GI50: > 100 µM (inactive)
A549
  GI50: > 100 µM (inactive)
Hs-578T
  GI50: > 100 µM (inactive)

## CC1(C)NC(=O)C(NC(=O)C(CC(=O)OCc2ccccc2)NC(=O)OCc2ccccc2)CCCCNC(=O)CCNC1=O (stereo not given) (Cbz-D(OBn)K[Aib][βAla]; lactam 2-C; configuration not given here)
HL-60
  GI50: > 100 µM (inactive)
OVCAR-8
  GI50: > 100 µM (inactive)
SN12C
  GI50: > 100 µM (inactive)
A498
  GI50: > 100 µM (inactive)
U-251
  GI50: > 100 µM (inactive)
MDA-N
  GI50: > 100 µM (inactive)
RPMI-8226
  GI50: > 100 µM (inactive)
RXF 393
  GI50: > 100 µM (inactive)
SK-OV-3
  GI50: > 100 µM (inactive)
SF-295
  GI50: > 100 µM (inactive)
M14
  GI50: > 100 µM (inactive)
NCI-H460
  GI50: > 100 µM (inactive)
MOLT-4
  GI50: > 100 µM (inactive)
SF-539
  GI50: > 100 µM (inactive)
LOX IMVI
  GI50: > 100 µM (inactive)
UO-31
  GI50: > 100 µM (inactive)
KM12
  GI50: > 100 µM (inactive)
A549
  GI50: > 100 µM (inactive)
Hs-578T
  GI50: > 100 µM (inactive)

## CCOP(=O)(Nc1ccc2oc(=O)c3ccccc3c2c1)OCC
HL-60
  GI50: 19.4 µM (inactive)
OVCAR-8
  GI50: > 100 µM (inactive)
SN12C
  GI50: > 100 µM (inactive)
A498
  GI50: 27.5 µM (inactive)
U-251
  GI50: 75.2 µM (inactive)
MDA-N
  GI50: 97.5 µM (inactive)
RPMI-8226
  GI50: 21.2 µM (inactive)
RXF 393
  GI50: 91.2 µM (inactive)
SF-295
  GI50: > 100 µM (inactive)
M14
  GI50: > 100 µM (inactive)
NCI-H460
  GI50: > 100 µM (inactive)
MOLT-4
  GI50: 54.8 µM (inactive)
SF-539
  GI50: > 100 µM (inactive)
LOX IMVI
  GI50: 47.5 µM (inactive)
CCRF-CEM
  GI50: 51.3 µM (inactive)
A549
  GI50: 41.9 µM (inactive)
Hs-578T
  GI50: 19.8 µM (inactive)

## COc1ccc(OC)c(C2CCc3cnc4nc(N)nc(N)c4c3C2)c1 (stereo not given)
HL-60
  GI50: > 100 µM (inactive)
OVCAR-8
  GI50: 91.2 µM (inactive)
SN12C
  GI50: > 100 µM (inactive)
A498
  GI50: > 100 µM (inactive)
U-251
  GI50: 48.8 µM (inactive)
MDA-N
  GI50: 55.5 µM (inactive)
RPMI-8226
  GI50: > 100 µM (inactive)
RXF 393
  GI50: 33.6 µM (inactive)
SK-OV-3
  GI50: > 100 µM (inactive)
SF-295
  GI50: 56.2 µM (inactive)
M14
  GI50: 92.3 µM (inactive)
NCI-H460
  GI50: 57.3 µM (inactive)
MOLT-4
  GI50: > 100 µM (inactive)
LOX IMVI
  GI50: 62.1 µM (inactive)
UO-31
  GI50: 37.4 µM (inactive)
KM12
  GI50: > 100 µM (inactive)
CCRF-CEM
  GI50: > 100 µM (inactive)
A549
  GI50: 59.6 µM (inactive)
Hs-578T
  GI50: > 100 µM (inactive)

## COc1cc2c(cc1OC)C1CN3C(=O)CCC3C(O)C1c1cc(OC)c(OC)cc1-2 (stereo not given)
HL-60
  GI50: > 100 µM (inactive)
OVCAR-8
  GI50: > 100 µM (inactive)
SN12C
  GI50: > 100 µM (inactive)
A498
  GI50: > 100 µM (inactive)
U-251
  GI50: > 100 µM (inactive)
MDA-N
  GI50: > 100 µM (inactive)
RPMI-8226
  GI50: > 100 µM (inactive)
RXF 393
  GI50: > 100 µM (inactive)
SK-OV-3
  GI50: > 100 µM (inactive)
SF-295
  GI50: > 100 µM (inactive)
M14
  GI50: > 100 µM (inactive)
NCI-H460
  GI50: > 100 µM (inactive)
MOLT-4
  GI50: > 100 µM (inactive)
LOX IMVI
  GI50: > 100 µM (inactive)
UO-31
  GI50: > 100 µM (inactive)
KM12
  GI50: > 100 µM (inactive)
CCRF-CEM
  GI50: > 100 µM (inactive)
A549
  GI50: > 100 µM (inactive)
Hs-578T
  GI50: > 100 µM (inactive)

## CSCC[C@H](NC(=O)[C@H](CC(C)C)NC(=O)[C@H](Cc1c[nH]cn1)NC(=O)CNC(=O)C1N(C(=O)[C@@H](C)NC(=O)[C@H](Cc2c[nH]c3ccccc23)NC(=O)[C@H](CCC(N)=O)NC(=O)[C@@H](N)CC(N)=O)CSC1(C)C)C(N)=O (stereo not given in full) (H-NQW[dA][ξThz(5,5-Me2)]GHLM-NH2)
HL-60
  GI50: > 25 µM (inactive)
OVCAR-8
  GI50: > 25 µM (inactive)
SN12C
  GI50: > 25 µM (inactive)
A498
  GI50: > 25 µM (inactive)
U-251
  GI50: > 25 µM (inactive)
MDA-N
  GI50: > 25 µM (inactive)
RPMI-8226
  GI50: > 25 µM (inactive)
RXF 393
  GI50: > 25 µM (inactive)
SK-OV-3
  GI50: > 25 µM (inactive)
SF-295
  GI50: > 25 µM (inactive)
M14
  GI50: > 25 µM (inactive)
NCI-H460
  GI50: > 25 µM (inactive)
MOLT-4
  GI50: > 25 µM (inactive)
SF-539
  GI50: > 25 µM (inactive)
LOX IMVI
  GI50: > 25 µM (inactive)
KM12
  GI50: > 25 µM (inactive)
CCRF-CEM
  GI50: > 25 µM (inactive)
A549
  GI50: > 25 µM (inactive)
Hs-578T
  GI50: > 25 µM (inactive)

## CN(C)CCOC(=O)c1ccc(N)cc1
HL-60
  GI50: 39 µM (inactive)
OVCAR-8
  GI50: 70.8 µM (inactive)
SN12C
  GI50: 48.2 µM (inactive)
A498
  GI50: 38.4 µM (inactive)
U-251
  GI50: 32.1 µM (inactive)
MDA-N
  GI50: 36.6 µM (inactive)
RPMI-8226
  GI50: 24.4 µM (inactive)
RXF 393
  GI50: 97.1 µM (inactive)
SK-OV-3
  GI50: 56.6 µM (inactive)
SF-295
  GI50: 47.8 µM (inactive)
M14
  GI50: 17.6 µM (inactive)
NCI-H460
  GI50: 31.8 µM (inactive)
MOLT-4
  GI50: 28.2 µM (inactive)
LOX IMVI
  GI50: 28.7 µM (inactive)
UO-31
  GI50: 33.8 µM (inactive)
KM12
  GI50: 37.2 µM (inactive)
CCRF-CEM
  GI50: 20.7 µM (inactive)
A549
  GI50: 52.4 µM (inactive)
Hs-578T
  GI50: 32.4 µM (inactive)
